Assay [1] has as its system hpDNA (hairpin DNA, 28 bp as printed) (DNA, hairpin) CGCGAATTCGCGTTTTCGCGAATTCGCG
As to the kind of experiment: fluorescence titration, single-site fit. The following applies: PBS (ion concentrations not given), PBS pH 7.4, room temperature, 1 h.

For assay [2] the test system is unchanged. As to the kind of experiment: fluorescence titration, two-site fit with offset. The following applies: PBS (ion concentrations not given); PBS pH 7.4, room temperature, 1 h; 10 nM compound; site 1 of 2.

In paper PMC6385482 (2018) one finds Kd1 data, which are given here for eleven compounds.

For `CCOc1ccc(-c2nc3ccc(-c4nc5ccc(N6CCN(C)CC6)cc5[nH]4)cc3[nH]2)cc1`, in assay [1] (4 nM compound), the Kd1 turned out to be 2.6 ± 0.4 nM.

Regarding `CN1CCN(c2ccc3nc(-c4ccc5nc(-c6ccc(OCCCCNC(=O)c7ccc8c(c7)C(=O)OC87c8ccc(N(C)C)cc8Oc8cc(N(C)C)ccc87)cc6)[nH]c5c4)[nH]c3c2)CC1`, the Kd1 in assay [1] (10 nM compound) stood at 365 ± 12 nM.

Regarding `CNc1ccc2c(c1)C(C)(C)c1cc(NC)ccc1C21OC(=O)c2ccc(C(=O)NCCCCOc3ccc(-c4nc5ccc(-c6nc7ccc(N8CCN(C)CC8)cc7[nH]6)cc5[nH]4)cc3)cc21`, the Kd1 in assay [2] came out at 27 ± 3 nM.

In assay [1] (10 nM compound), `CN1CCN(c2ccc3nc(-c4ccc5nc(-c6ccc(OCCCCNC(=O)c7ccc8c(c7)C(=O)OC87c8ccc(N(C)C)cc8[Si](C)(C)c8cc(N(C)C)ccc87)cc6)[nH]c5c4)[nH]c3c2)CC1` displayed a Kd1 of 4799 ± 201 nM.

Take `CN1CCN(c2ccc3nc(-c4ccc5nc(-c6ccc(OCCCCNC(=O)c7ccc8c(c7)C7(OC8=O)c8ccc(N(C)C)cc8[Si](C)(C)c8cc(N(C)C)ccc87)cc6)[nH]c5c4)[nH]c3c2)CC1`: the Kd1 in assay [1] (10 nM compound) came out at 669 ± 26 nM.

In assay [1] (10 nM compound), `CN1CCN(c2ccc3nc(-c4ccc5nc(-c6ccc(OCCCCNC(=O)c7ccc8c(c7)C(=O)OC87c8ccc(N(C)C)cc8C(C)(C)c8cc(N(C)C)ccc87)cc6)[nH]c5c4)[nH]c3c2)CC1` had a Kd1 of 347 ± 22 nM.

`CN1CCN(c2ccc3nc(-c4ccc5nc(-c6ccc(OCCCCNC(=O)c7ccc8c(c7)C(=O)OC87c8ccc(N(C)C)c[c]8[Ge]([CH3])([CH3])[c]8cc(N(C)C)ccc87)cc6)[nH]c5c4)[nH]c3c2)CC1` showed a Kd1 in assay [1] (10 nM compound) of 4374 ± 192 nM.

Take `CN1CCN(c2ccc3nc(-c4ccc5nc(-c6ccc(OCCCCNC(=O)c7ccc8c(c7)C7(OC8=O)c8ccc(N(C)C)c[c]8[Ge]([CH3])([CH3])[c]8cc(N(C)C)ccc87)cc6)[nH]c5c4)[nH]c3c2)CC1`: in assay [1] (10 nM compound), the Kd1 was 572 ± 26 nM.

For the compound `CN1CCN(c2ccc3nc(-c4ccc5nc(-c6ccc(OCCCCNC(=O)c7ccc8c(c7)C7(OC8=O)c8ccc(N(C)C)cc8Oc8cc(N(C)C)ccc87)cc6)[nH]c5c4)[nH]c3c2)CC1`, the Kd1 in assay [2] turned out to be 14 ± 1 nM.

`CN1CCN(c2ccc3nc(-c4ccc5nc(-c6ccc(OCCCCNC(=O)c7ccc8c(c7)C7(OC8=O)c8ccc(N(C)C)cc8C(C)(C)c8cc(N(C)C)ccc87)cc6)[nH]c5c4)[nH]c3c2)CC1`: the Kd1 in assay [2] was found to be 65 ± 7 nM.

The compound `CNc1ccc2c(c1)C(C)(C)c1cc(NC)ccc1C21OC(=O)c2cc(C(=O)NCCCCOc3ccc(-c4nc5ccc(-c6nc7ccc(N8CCN(C)CC8)cc7[nH]6)cc5[nH]4)cc3)ccc21` had a Kd1 in assay [1] (10 nM compound) of 155 ± 14 nM.
